Results published in patent US20250090996A1, “ACID GAS REMOVAL METHOD, ACID GAS ABSORBENT, AND ACID GAS REMOVAL APPARATUS” (KABUSHIKI KAISHA TOSHIBA, priority 2023, published 2025).

Columns and labels:
[1] = Amount of compound dissolved in water (total organic carbon of lower aqueous phase); assay type: physicochemical; conditions: 25° C., atmospheric pressure, converted from total organic carbon of lower phase
From the text: An acid gas absorbent according to the embodiment contains an amine compound and water, as main agents for absorbing an acid gas. The amine compound used here is a liquid amine compound having a secondary amine structure. An acid gas remover contains a mixture of the liquid amine compound and water, and an amount of a salt to be dissolved in water is larger than an amount of the liquid amine compound itself to be dissolved in water, the salt being formed from the liquid amine compound and the acid gas. Here, the liquid amine compound is an amine compound that is liquid at 25° C. under atmospheric pressure. An amount of the liquid amine compound to be dissolved at room temperature is generally small, and, for example, an amount of the liquid amine compound to be dissolved in water at 25° C. is 50,000 mg/L or less. Upon contact of the liquid amine compound with the acid gas, a salt is formed, and is ionized when water coexists, to increase the dissolved amount. The amount of such a salt to be dissolved is, for example, 2 times or more, preferably 5 times or more, and more preferably 10 times or more the amount of the liquid amine to be dissolved as a base at 25° C. In the present embodiment, the dissolved amount (mg/L) is a mass (mg) of the liquid amine based on a total volume (L) of water and the liquid amine compound.
(§1) When a compound (a-1) of General Formula (a) wherein R^1 and R^3 are 1-ethylpropyl groups and R^2 is C3 linear alkyl and water were blended at a mass ratio of 50:50, two phases of an organic phase (amine compound phase) as an upper phase and an aqueous phase as a lower phase were formed. […] The temperature in the column was changed in a range of 60° C. to 70° C., and an inert gas was caused to flow at 50 ml/min. […] Here, the amount of carbon dioxide saturated and absorbed is a value obtained by measuring the amount of inorganic carbon in the acid gas absorbent with an infrared gas concentration measuring apparatus. The amount of this compound dissolved was 18,000 mg/L at 25° C. and under atmospheric pressure. The amount of the compound dissolved was determined by sampling the lower phase of the two phases fractionated, measuring the total organic carbon concentration with a total organic carbon meter TOC-L (trade name) manufactured by Shimadzu Corporation, and converting it into the amount of amine dissolved from the chemical formula of the compound (a-1).

[2] = Regeneration (carbon dioxide release) on heated molecular sieve 4A column; conditions: column 60° C. to 70° C., inert gas 50 ml/min, fractionated
Experimental: as §1

[3] = Phase state of amine/water mixture before and after carbon dioxide absorption; assay type: physicochemical; conditions: for phase state after absorbing carbon dioxide: mixture with water 50:50 after CO2:N2=1:9 bubbling; for phase state when blended with water: ratio 50:50, before carbon dioxide absorption, organic upper phase, aqueous lower phase
From the text: Here, in the present embodiment, the “state in which the organic phase and the aqueous phase are phase-separated” means that, for example, a mixture of water and a liquid amine has a relationship in which a state in which the organic phase and the aqueous phase are phase-separated, in other words, a boundary between the organic phase and the aqueous phase can be visually confirmed. Here, in the present embodiment, the organic phase is a phase containing the liquid amine compound as a main component in a state of being phase-separated, and is also a phase containing a high concentration of the liquid amine compound in a state of being separated from the acid gas. The aqueous phase is a phase containing water as a main component in a state of being phase-separated. At a high carbon dioxide concentration, the acid gas absorbent has an increased amount of the liquid amine compound to be dissolved in water, and the liquid amine compound is dissolved in an aqueous solution. In the acid gas absorbent, the organic phase and the aqueous phase are not phase-separated in this state (the acid gas absorbent has one phase). At a low acid gas concentration, the acid gas absorbent is decreased in solubility of the liquid amine compound in water, and is phase-separated into an aqueous phase and an organic phase containing a high concentration of the liquid amine compound. When the acid gas absorbent is phase-separated, the organic phase and the aqueous phase typically form complete two phases. However, in the present embodiment, even when it is not completely phase-separated, the organic phase and the aqueous phase are referred to as “two phases” in a case where a boundary between the phases can be confirmed.
Hereinafter, Examples of the embodiment will be described. In the following Examples, conditions before heating the acid gas absorbent were 25° C. and atmospheric pressure.
as §1

[4] = as above; assay type: physicochemical; conditions: volume ratio 50:50
[5] = S concentration of aqueous phase after adding sulfuric acid (ICP); assay type: physicochemical; conditions: 1 ml of 1 mol/l sulfuric acid added to 30 ml of mixture with water (volume ratio 50:50), after stirring
Experimental: When the compound (a-1) and water were blended at a volume ratio of 50:50, two phases of an organic phase as an upper phase and an aqueous phase as a lower phase were formed. One (1) ml of 1 mol/1 sulfuric acid was added to 30 ml of the mixture, and, after stirring, the S concentration of the aqueous phase was measured by ICP. As a result, the S concentration was 17.6 mg-S/L (Reference Example 1).

amount of compound dissolved [1] | phase state of mixture after passing through column [2] | phase state after absorbing carbon dioxide [3] | phase state when blended with water [3] | phase state when blended with water [4] | S concentration of the aqueous phase [5] [mg-S/L] | Compound
11,000 mg/L | two phases were formed | formed one phase | two phases | – | – | CC(C)CC(C)NCCCNCCCNC(C)CC(C)C (stereo not shown) [compound (b-3)]
22,000 mg/L | two phases were formed | formed one phase | two phases | – | – | CCC(CC)NCCCN(C)CCCNC(CC)CC [compound (b-1)]

The next lines start with the molecule.

Compound | amount of compound dissolved [1] | phase state of mixture after passing through column [2] | phase state after absorbing carbon dioxide [3] | phase state when blended with water [3] | phase state when blended with water [4] | S concentration of the aqueous phase [5] [mg-S/L]
CCC(CC)NCCCNC(CC)CC [compound (a-1)] | 18,000 mg/L | two phases were formed | formed one phase | two phases | two phases | 17.6
CC(C)CC(C)NCCCN(C)CCCNC(C)CC(C)C (stereo not shown) [compound (b-2)] | 4,000 mg/L | two phases were formed | formed one phase | two phases | – | –
CC(C)N(C)C(C)C [diisopropylmethylamine, reference compound] | – | – | – | two phases | – | –
